From patent US20050148673A1, “Prolonged administration of NMDA antagonist and safener drug to alter neuropathic pain condition” (priority 2002, published 2005)

How the values were obtained:
[1] = tested on: patients with post-herpetic neuralgia; details: cited from earlier work; for patients in whom side effects were observed: single intravenous injection, of 8 patients (ketamine 0.15 mg/kg, morphine 0.075 mg/kg), Eide et al 1994
[2] = tested on: patients with chronic neuropathic pain; assay: Prolonged infusions of ketamine without any safener drug or magnesium, patients treated in Australia; assay type: in vivo, human
Source text: About 30 patients have been treated during the span of 1997 through 2002, in Australia, by one of the Inventors herein (Correll), using prolonged infusions of ketamine without any safener drug or magnesium. […] Those patients have been described in more detail in Correll et al 2004, and more current information on the duration of remission are provided in FIGS. 1 and 2 of that report. That report is not prior art against this invention.

[3] = Ketamine and norketamine concentrations in blood plasma during infusion; assay type: in vivo, human
Protocol: Blood samples were taken from each patient during his or her infusion regimen, and those samples were shipped to an analytical laboratory (National Medical Services Company, in Willow Grove, Pa.) to have their ketamine concentrations analyzed. […] In view of those data, it is believed that blood plasma concentrations of at least about 200 ng/ml (and preferably at least about 250 to about 350 ng/ml) should be regarded as target levels for effective treatments.

[4] = tested on: patients with CRPS-Type 1 (RSD) neuropathic pain; assay: Prolonged continuous intravenous ketamine infusion with clonidine and MgSO4 in U.S. patients with CRPS-Type 1 (RSD); assay type: in vivo, human
Protocol: Roughly 2 hours before ketamine infusion begins, the patient should be given an oral dose of a “safener drug” that can reduce or eliminate the risks of any neurotoxic side effects that might otherwise be caused by continuous prolonged administration of the ketamine. […] As an additional benefit, clonidine (and various other alpha-2 adrenergic agonist drugs) can also help reduce blood pressure. This is useful, when used in conjunction with ketamine, since elevated blood pressure can be a side effect of ketamine, due to certain activities involving the sympathetic nervous system and the release of catecholamines.
In the treatments disclosed herein, clonidine tablets containing 0.1 or 0.2 mg were administered orally, every 8 to 12 hours, with good results. […] The transdermal form of clonidine (i.e., using skin patches) has also been used, with good results.
Beginning roughly 2 hours before the ketamine infusion is commenced (this can be done conveniently at the same time when the first clonidine tablet is taken), the patient should also be administered magnesium, preferably by intravenous infusion of a water-soluble salt, such as magnesium sulfate or chloride. This can be done by dissolving 2 grams of MgSO4 in 250 milliliters of 5% dextrose in water (abbreviated as D5W) and infusing the liquid into the patient over a period of about 2 hours.
A second infusion of 2 grams of MgSO4 should be administered roughly 24 hours later. This can be repeated each day, if desired, if the patient has not yet achieved complete cessation of the chronic pain; however, in the treatments completed to date, it has never been provided more than 3 times.
As soon as the initial magnesium infusion (which takes about 2 hours) has been completed, the patient is ready for the ketamine infusion to begin. In the treatments described herein, since these were done without being able to rapidly determine ketamine concentrations in blood, each patient was individually “titered”, by testing a series of gradually increasing dosages until a “maximum tolerated dosage” was reached and determined.
This typically was done by starting each patient at an initial dosage of 10 mg per hour, and then evaluating the patient every 2 hours after that, to see whether the dosage should be increased by another 5 or 10 mg/hr. When a patient began showing or reporting substantial CNS effects (such as feeling drunk, slurring of speech, semi-hallucinatory thoughts or visions, etc.), it was presumed that the maximum tolerated dosage had been reached or slightly passed, and the dosage was decreased slightly (such as by 5 or 10 mg/hr, depending on how well the reported pain levels were decreasing).
Four other patients who had suffering from CRPS type 1 for at least two years were subsequently treated in the U.S. Because of patient privacy concerns, the details of their condition cannot be disclosed herein. Typical treatments for these patients commenced with 2 grams of MgSO4 (infused in 5% dextrose in water, or D5W) and 1 or 2 tablets of 0.1 mg clonidine, two or three times per day as tolerated, commencing at least an hour prior to the first ketamine infusion. Throughout the treatment, patients continued to receive 1 or 2 tablets of clonidine 2 to 3 times per day, as tolerated, and a second magnesium infusion was performed in some patients at 24 hr.

[5] = tested on: patients with post-herpetic neuralgia (shingles); assay: Ketamine treatment of patients with post-herpetic neuralgia (shingles); assay type: in vivo, human
Protocol: Several patients were also treated who suffered from post-herpetic neuralgia (commonly known as shingles).

[6] = tested on: NMDA receptors; details: cited from earlier work

## CN1CC[C@]23c4c5ccc(O)c4O[C@H]2[C@@H](O)C=C[C@H]3[C@H]1C5 [morphine]
[1]
  patients in whom side effects were observed: 6 patients

## CNC1(c2ccccc2Cl)CCCCC1=O (racemic) [ketamine]
[2]; ketamine alone, about 30 patients
  overall result: generally good results
[2]; of about 30 patients treated 1997 through 2002, ketamine alone
  patients believed to remain generally pain-free or in partial remission: more than 25 patients
[1]
  patients in whom side effects were observed: 8 patients
[1]; subcutaneous administration over a continuous span of 7 days, 5 patients, Eide et al 1995
  tolerability: associated with intolerable side effects
[3]; did not reach or even closely approach this level
  blood plasma concentration of ketamine in the two patients without complete and long-lasting relief: < 300 ng/mL
[3]; plasma, during infusion
  blood plasma concentration of ketamine that appeared to provide the best results: greater than 250 ng/ml
[4]; FIG. 1 patient, baseline 8, after 24 hours of ketamine infusion (plateau)
  reported pain level: about 1.3
[4]; FIG. 1 patient, one of four further CRPS type 1 patients
  duration of apparently complete relief: roughly six
[4]; FIG. 1 patient, within about 3 hours after second MgSO4 infusion commencing at 24 hours, ketamine continued
  reported pain level: zero
[4]; first patient treated in the U.S.
  duration of apparently complete remission: about 18 months
[4]; one of four further CRPS type 1 patients, appears permanent as of filing date
  pain relief outcome: apparently complete relief
[4]; one of two patients with low ketamine plasma concentrations
  level to which pain returned, relative to pretreatment level: roughly 50%
[4]; other of two patients with low ketamine plasma concentrations
  level to which pain returned: roughly the same starting level that existed prior to treatment
[5]
  outcome in certain other patients: transitory and partial benefits
  outcome in one patient: essentially complete remission

## NC1(c2ccccc2Cl)CCCCC1=O (stereo not shown) [norketamine]
[6]
  effectiveness relative to ketamine in reducing pain signals: about 25%
  effectiveness relative to ketamine in suppressing activity at NMDA receptors: about 25%
[3]; one patient with return of pain
  level of norketamine in blood: high level
